The source of these data is PubChem BioAssay (NCI).

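All cell lines were grown in 96-well plates and treated with compound for 48 hours. At the TGI there is no net growth.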 A value given as a limit tells only on which side of the number the result lay.

Among the test systems are 786-0 renal; CCRF-CEM leukemia; HCT-116 colon; HOP-62 NSCLC; HT29 colon; MALME-3M melanoma; NCI-H522 lung; OVCAR-3 ovarian; RPMI-8226 leukemia; SN12C renal; SW-620 colon; TK-10 renal.
Experiment in all cases: DTP human tumour cell line panel, 48 h

The term TGI denotes the concentration at which net growth stops. In the case of `CCN(CC)P1(=S)Oc2ccc3ccccc3c2-c2c(ccc3ccccc23)O1`, the TGI with 786-0 renal, with CCRF-CEM leukemia, in the test on HCT-116 colon, in the test on HOP-62 NSCLC, in the test on HT29 colon and with MALME-3M melanoma was over 100 µM each time. Also, the TGI in the test with NCI-H522 lung, in the test on OVCAR-3 ovarian, with RPMI-8226 leukemia, with SN12C renal, in the test with SW-620 colon and in the test on TK-10 renal was over 100 µM in each case.

Consider `COc1ccc(OC)c2c1C[C@@H]1C(C#N)N3[C@H](Cc4c(OC)ccc(OC)c4[C@@H]3C)C(=O)N1[C@H]2C` (stereo not given in full), for which the TGI is 7.72 µM with 786-0 renal; 6.75 µM in the test with CCRF-CEM leukemia; 11.8 µM in the test with HCT-116 colon; over 57.5 µM in the test with HOP-62 NSCLC; 30.4 µM with HT29 colon; 8.61 µM in the test on MALME-3M melanoma. Also, the TGI with NCI-H522 lung was 3.3 µM; with OVCAR-3 ovarian, 5.2 µM; with RPMI-8226 leukemia, 7.29 µM; with SN12C renal, over 50.2 µM; with SW-620 colon, 8.41 µM; with TK-10 renal, 15.2 µM.

As to `CC(=O)c1nc2ccccc2n1CC(=O)c1ccc([N+](=O)[O-])cc1`, the TGI with 786-0 renal was 15.9 µM; in the test with CCRF-CEM leukemia it was over 100 µM; with HCT-116 colon it was 25.1 µM; in the test with HOP-62 NSCLC, 17.6 µM; with HT29 colon it was 46 µM; in the test on MALME-3M melanoma, 33.2 µM. Also, the TGI was 15.7 µM with NCI-H522 lung; 35.4 µM in the test with OVCAR-3 ovarian; over 100 µM in the test on RPMI-8226 leukemia; over 100 µM in the test with SN12C renal; 41.6 µM with SW-620 colon; over 100 µM in the test with TK-10 renal.

For `C[N+](C)(C)CCCCCc1c2nc(c(CCCCC[N+](C)(C)C)c3ccc([nH]3)c(CCCCC[N+](C)(C)C)c3ccc([nH]3)c(CCCCC[N+](C)(C)C)c3nc1C=C3)C=C2`, the TGI with 786-0 renal, with CCRF-CEM leukemia, in the test with HCT-116 colon, in the test on HOP-62 NSCLC, with HT29 colon and with MALME-3M melanoma was over 100 µM in each case. Moreover, the TGI with NCI-H522 lung, in the test with OVCAR-3 ovarian, in the test on RPMI-8226 leukemia, in the test with SN12C renal, with SW-620 colon and with TK-10 renal was over 100 µM each time.

On to `C#CCNC(Cc1ccccc1)C(=O)O` (stereo not given), for which the TGI with 786-0 renal, in the test on CCRF-CEM leukemia, in the test with HCT-116 colon, with HOP-62 NSCLC, in the test on HT29 colon and in the test with MALME-3M melanoma was over 100 µM throughout. Besides, the TGI in the test with NCI-H522 lung, in the test with OVCAR-3 ovarian, in the test on RPMI-8226 leukemia, in the test with SW-620 colon and in the test on TK-10 renal was over 100 µM throughout.

On to `O=C(/C=C1\N=C(c2ccccc2)N(c2ccc3c(c2)Sc2cc(N4C(=O)/C(=C/C(=O)/C=C/c5ccccc5)N=C4c4ccccc4)ccc2N3)C1=O)/C=C/c1ccccc1`, for which the TGI was over 100 µM in the test with 786-0 renal; 63 µM in the test with CCRF-CEM leukemia; over 100 µM in the test on HCT-116 colon; over 100 µM with HOP-62 NSCLC; over 100 µM in the test with HT29 colon; 55.8 µM with MALME-3M melanoma. Further, the TGI in the test on NCI-H522 lung was 46.8 µM; with OVCAR-3 ovarian, 43.6 µM; in the test on RPMI-8226 leukemia, over 100 µM; in the test with SN12C renal it was over 100 µM; with SW-620 colon, over 100 µM; in the test on TK-10 renal, over 100 µM.

As for `CCCCc1cc2c(cc1O)CCC1C2CC[C@@]2(C)C1CC[C@@H]2O` (stereo not given in full), the TGI with 786-0 renal was 73.1 µM; in the test on CCRF-CEM leukemia, 56.7 µM; with HCT-116 colon it was 36.6 µM; in the test on HOP-62 NSCLC, 57.3 µM; in the test on HT29 colon it was 50.3 µM; in the test on MALME-3M melanoma, 39.2 µM. The TGI in the test on NCI-H522 lung stood at 43.7 µM; in the test on OVCAR-3 ovarian it was 29.7 µM; in the test on RPMI-8226 leukemia, 39.1 µM; in the test with SN12C renal, 39.3 µM; in the test on SW-620 colon, 59.2 µM; in the test with TK-10 renal, 33.7 µM.

Turning to `COc1ccc(N=NN2CCCC2)cc1`, the TGI in the test on 786-0 renal is 32.7 µM; in the test with CCRF-CEM leukemia, 56.6 µM; in the test with HCT-116 colon, 38.6 µM; in the test on HOP-62 NSCLC, over 100 µM; with HT29 colon, over 100 µM; in the test on MALME-3M melanoma, 39.3 µM. Further, the TGI is 32.2 µM in the test with NCI-H522 lung; 43.8 µM in the test with OVCAR-3 ovarian; 74.1 µM with RPMI-8226 leukemia; 55 µM with SN12C renal; 81.4 µM in the test with SW-620 colon; over 100 µM in the test with TK-10 renal.

As to `CC(C)(C)NCC(O)COc1cccc2[nH]c(C#N)cc12` (stereo not given), the concentration for total growth inhibition (TGI) in the test with 786-0 renal, with HCT-116 colon, in the test on HOP-62 NSCLC, in the test with HT29 colon, in the test with MALME-3M melanoma and with NCI-H522 lung was over 100 µM in each case. Besides, the TGI in the test on OVCAR-3 ovarian, in the test with RPMI-8226 leukemia, in the test with SN12C renal, in the test with SW-620 colon and with TK-10 renal was over 100 µM in each case.

Take `COc1cccc(-n2nnc3c(N)nc(N)nc32)c1`: the TGI in the test on 786-0 renal, with CCRF-CEM leukemia, in the test on HCT-116 colon, with HOP-62 NSCLC, in the test with HT29 colon and with MALME-3M melanoma was over 100 µM throughout. The TGI with NCI-H522 lung, with OVCAR-3 ovarian, with RPMI-8226 leukemia, in the test on SN12C renal, with SW-620 colon and in the test on TK-10 renal was over 100 µM each time.

`C=C1C(=O)OC2C(C)C3C=CC(=O)[C@@]3(C)C(OC(=O)/C(C)=C/C)C1[C@@H]2OC(C)=O` (stereo not given in full): the TGI with 786-0 renal was 0.63 µM; in the test on CCRF-CEM leukemia it was over 28.7 µM; in the test on HCT-116 colon, 0.769 µM; in the test on HOP-62 NSCLC, 2.86 µM; in the test on HT29 colon, 1.18 µM; in the test on MALME-3M melanoma, 0.539 µM. Further, the TGI worked out at 0.334 µM with NCI-H522 lung; 0.744 µM in the test on OVCAR-3 ovarian; 3.16 µM in the test with RPMI-8226 leukemia; 1.24 µM with SN12C renal; 0.694 µM with SW-620 colon; 1.57 µM in the test on TK-10 renal.
